Measurements as given in patent publication US6613794B2, “Hydroxyindoles, their use as inhibitors of phosphodiesterase 4 and processes for their preparation” (Arzneimittelwerk Dresden GmbH, priority 1998, dated 2003).
Each block holds one molecule with its values, some of them ahead of it.

Assays:
[1] = test system: LPS-induced TNFα release in human blood; assay: LPS-induced TNFα release in human blood; assay type: cell-based; details: human blood diluted 1:5, LPS 10 μg/ml, 24 hours
Text: The stimulation of isolated leucocytes to cytokine release can take place in various ways. Lipopolysaccharides (LPSs) are a stimulus suitable for the investigation of TNFα release. LPS is a constituent of the bacterial cell walls and is released by killing the bacteria (antibiotics or immune system). LPS particularly stimulates the activity of the phagocytizing leucocytes (tissue macrophages, granulocytes, monocytes) and causes the infiltration of leucocytes from the blood stream into the affected tissue. A cytokine important for these mechanisms is TNFα, which is secreted in large amounts by the affected cells (the monocytes and macrophages are the main source) and initiates and maintains inflammation alongside other mediators.
For the investigation of the effect on LPS-induced TNFα release, human blood was obtained from various donors (inhibition of coagulation by means of citrate) and diluted 1:5 with RPMI 1640 cell culture medium. The test substances were added to the samples in various concentrations before the LPS challenge. […] After incubation of the test batches for 24 hours at 37° C. and under 5% CO2 in an incubator, the diluted blood was centrifuged and the TNFα concentration in the cell-free supernatant was measured by means of ELISA.

[2] = test system: LPS-induced pulmonary neutrophil infiltration; assay: LPS-induced pulmonary neutrophil infiltration in ferrets; assay type: in vivo; details: for inhibition of LPS-induced neutrophilia: powder with lactose, 2 hours before LPS
Method: The inhibition of lipopolysaccharide (LSP)-induced pulmonary neutrophil infiltration by the substance is investigated in an in vivo test on male ferrets (0.6-2 kg). The experimental animals are anaesthetized with pentobarbital sodium (40 mg/kg of body weight i.p.), placed individually into a closed nebulization box of 5 l capacity and exposed to an ultrasonically nebulized aerosol of 0.01% strength LPS (lipopolysaccharide) solution (additionally 0.1% hydroxylamine in PBS) for 10 minutes. The aerosol is generated by a nebulizer driven with compressed air (0.2 Mpa). Control animals are treated with an aerosol of physiological saline solution. The animals are observed during the entire process and removed from the nebulization box after admission of fresh air. On inhalation, nebulized LPS immediately induces inflammation of the airways, which is characterized by a massive infiltration of neutrophilic granulocytes into the lungs of the experimental animals. The neutrophilia achieves its maximum 4 to 6 hours after LPS exposure. In order to be able to measure the number of infiltrated neutrophilic granulocytes, the animals are anaesthetized with an overdose of ethylurethane (1.5 g/kg of body weight i.p.) 6 hours after LPS provocation and a bronchoalveolar lavage (BAL) is carried out using 2×10 ml of physiological saline solution. The number of cells in the pooled original BAL fluid (100 μl) are determined using the automatic cell-counting apparatus sold by Bayer Diagnostic under the trade designation Technicon HIE and the different leucocytes per μl are differentiated. In each test, 2 control groups (nebulization with physiological saline solution or with LPS solution) are included. Substances having anti-inflammatory activity, particularly those which affect TNFα release or the function of the neutrophilic granulocytes, inhibit the infiltration of leucocytes. The inhibition of infiltration is determined by the comparison of the number of infiltrated neutrophils in untreated experimental animals (with and without LPS provocation).
For intrapulmonary administration, the trachea of the animals is opened under anaesthesia with 40 mg/kg i.p. of pentobarbital sodium, 3% strength, 1.3 ml/kg, a 7 cm-long PVC catheter is tied in and the test substances are administered intrapulmonarily in powder form (mixed with lactose to 20 mg/kg) by means of a syringe 2 hours before LPS provocation. The intrapulmonary administration of Example 1 in doses of 1, 3 and 10 mg/kg inhibits LPS-induced neutrophilia in a dose-dependent manner (43%, 65% and 100%).

[3] = test system: LPS-induced pulmonary neutrophilia; assay: LPS-induced pulmonary neutrophilia in domestic pigs; assay type: in vivo; details: intrapulmonary administration of 10 mg/animal
Method: Pulmonary neutrophilia can be induced with LPS in domestic pigs in a manner similar to that in the ferret. The animals are anaesthetized with pentobarbital 10 mg/kg i.v., and intubated. Using a bronchoscope, a partial bronchoalveolar lavage is carried out in order to determine the proportion of neutrophilic granulocytes under physiological conditions. The test substance is then administered and the animals inhale an ultrasonically nebulized aerosol of 0.03% strength LPS (lipopolysaccharide) solution (additionally 0.1% hydroxylamine in PBS) through the tracheal tube for 20 min. The inhaled LPS induces a reactive inflammation of the airways and neutrophilic granulocytes infiltrate on a huge scale. The neutrophilia achieves its maximum 4 to 6 hours after LPS exposure. After 6 hours, the bronchoalveolar lavage is repeated and the increase in the neutrophil count is determined arithmetically.

SMILES: O=C(Nc1c(Cl)cc(C(F)(F)F)cc1Cl)C(=O)c1cn(Cc2ccc(F)cc2)c2ccc(O)cc12
- melting point: 199 to 201 °C

SMILES: O=C(Nc1c(Cl)cncc1Cl)C(=O)c1cn(Cc2c(F)cccc2F)c2ccc(O)cc12
- melting point: 266 to 268 °C

SMILES: CCCn1cc(C(=O)C(=O)Nc2c(Cl)cncc2Cl)c2cc(O)ccc21
- melting point: 280 to 282 °C

SMILES: O=C(Nc1c(Cl)cncc1Cl)C(=O)c1cn(CC2CCCC2)c2ccc(O)cc12
- melting point: 246 to 248 °C

SMILES: COc1ccc(C(=O)Nc2c(Cl)cncc2Cl)cc1OC1CCCC1 [RPR-73401, reference compound]
- inhibition of neutrophilia in the BAL ([2]; 1 mg/kg i.p.): 49%

SMILES: COc1ccc([C@]2(C#N)CC[C@@H](C(=O)O)CC2)cc1OC1CCCC1 [SB 207499, reference compound]
- IC50 [1]: 7 µM

Now from value to molecule, other results behind:

- melting point: 216 to 218 °C
SMILES: O=C(Nc1c(Cl)cccc1Cl)C(=O)c1cn(Cc2ccc(F)cc2)c2ccc(O)cc12

- melting point: 176 to 178 °C
SMILES: O=C(Nc1c(Cl)cc(OC(F)(F)F)cc1Cl)C(=O)c1cn(Cc2ccc(F)cc2)c2ccc(O)cc12

- melting point: 212 to 213 °C
SMILES: O=C(Nc1c(Cl)cncc1Cl)C(=O)c1cn(Cc2ccc(F)cc2)c2cc(O)ccc12

- melting point: 239 to 241 °C
SMILES: COc1ccc(Cn2cc(C(=O)Nc3c(Cl)cncc3Cl)c3cc(O)ccc32)cc1

- melting point: 245 to 247 °C
SMILES: CC(C)n1cc(C(=O)C(=O)Nc2c(Cl)cncc2Cl)c2cc(O)ccc21

- IC50 [1]: 0.8 µM
SMILES: O=C(Nc1c(Cl)cncc1Cl)C(=O)c1cn(Cc2ccc(F)cc2)c2ccc(O)cc12 [Example 1, N-(3,5-Dichloropyridin-4-yl)-2-[1-(4-fluorobenzyl)-5-hydroxyindol-3-yl]-2-oxoacetamide]
- inhibition of neutrophilia in the BAL ([2]; 1 mg/kg i.p.): 18%
- inhibition of LPS-induced neutrophilia ([2]; 1 mg/kg intrapulmonary): 43%
- inhibition of neutrophilia in the BAL ([2]; 3 mg/kg i.p.): 64%
- inhibition of LPS-induced neutrophilia ([2]; 3 mg/kg intrapulmonary): 65%
- inhibition of neutrophilia in the BAL ([2]; 10 mg/kg i.p.): 78%
- inhibition of LPS-induced neutrophilia ([2]; 10 mg/kg intrapulmonary): 100%
- ID50, inhibition of LPS-induced neutrophilia in BAL ([2]; i.p., 2 hours before LPS provocation): 2.4 mg/kg
- ID50, inhibition of LPS-induced neutrophilia ([2]; intrapulmonary administration (printed i.palm.)): 1.65 mg/kg
- inhibition of LPS-induced pulmonary neutrophilia [3]: 51%
